In brackets after ≈: the same amount, converted by molar mass. Peptide text beside a SMILES is read from it.

The term EC50 denotes the concentration at which the effect is half-maximal. The term solubility denotes the dissolved amount per volume that the medium holds. A lower solubility goes with a poorly soluble substance.

For data set [1], the target named is T1, GC receptor (Homo sapiens, UniProt P47871).
T1 construct: expressed in transfected cells; host or cells: HEK293 cells
The data set can be described thus: GC receptor mediated cAMP production in vitro (HEK293 cells transfected with GC receptor). Format: cell-based. Particulars: 20 min at 37° C., read-out: GCGR (nM EC50). The text has this:
The medium was removed, the cells were lysed, and cAMP values were detected referring to the detection method described for the assay kit.
(Cyclic AMP is a second messenger, typically raised through Gs and lowered through Gi signalling.)

Data set [2] in a line: physchem. In kind it is physicochemical.
Experimental: 2 mg of the compound was weighed, dissolved in 1 ml of phosphate buffer solutions with different concentrations (10, 20 mM) and different pH values (7.5, 8.0), and centrifuged, and supernatant was taken. The peak area was measured by HPLC (chromatographic column: Aeris widepore XB-C18 3.6 mm, 4.6×150 mm; mobile phase: A: 0.05% TFA, B: 95% acetonitrile; detection wavelength: 214 nm) and compared with a corresponding sample standard solution, and the relative concentration of the test sample solution is calculated.
Where [3] appears, read: pH 7.5, Solubility, pH 7.5, 10 mM phosphate buffer.
The mark [4] stands for this setting: pH 7.5, Solubility, pH 7.5, 20 mM phosphate buffer.
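Throughout, for Solubility, pH 7.5, 20 mM phosphate buffer: compound added at 2 mg per mL of phosphate buffer, with the dissolved amount determined in the supernatant.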
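Throughout, for solubility: compound added at 2 mg per mL of phosphate buffer, with the dissolved amount determined in the supernatant.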

T1 sequence (P47871 26-477): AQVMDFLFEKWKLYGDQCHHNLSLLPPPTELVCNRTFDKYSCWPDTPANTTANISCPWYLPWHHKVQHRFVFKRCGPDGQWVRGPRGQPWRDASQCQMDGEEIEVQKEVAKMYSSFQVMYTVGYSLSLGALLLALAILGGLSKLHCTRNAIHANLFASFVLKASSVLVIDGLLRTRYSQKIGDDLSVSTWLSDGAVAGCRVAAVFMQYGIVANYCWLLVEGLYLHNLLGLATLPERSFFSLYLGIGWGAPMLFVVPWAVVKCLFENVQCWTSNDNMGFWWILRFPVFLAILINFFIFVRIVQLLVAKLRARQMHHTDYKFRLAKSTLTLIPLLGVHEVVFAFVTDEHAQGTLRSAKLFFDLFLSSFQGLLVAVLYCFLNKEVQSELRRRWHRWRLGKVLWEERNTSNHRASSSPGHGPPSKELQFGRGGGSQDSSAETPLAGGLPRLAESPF

As to `CCCCCCCCCCCCCCCC(=O)N[C@@H](CCC(=O)N[C@@H](CCC(=O)NCCCC[C@H](NC(=O)[C@H](CC(=O)O)NC(=O)[C@H](CO)NC(=O)[C@@H](NC(=O)[C@H](Cc1ccccc1)NC(=O)[C@@H](NC(=O)CNC(=O)[C@H](CCC(N)=O)NC(=O)C(C)(C)NC(=O)[C@@H](N)Cc1c[nH]cn1)[C@@H](C)O)[C@@H](C)O)C(=O)N[C@@H](CO)C(=O)N[C@@H](CCCCN)C(=O)N[C@@H](Cc1ccc(O)cc1)C(=O)N[C@@H](CC(C)C)C(=O)N[C@@H](CCC(=O)O)C(=O)N[C@@H](CCC(=O)O)C(=O)N[C@@H](CCCNC(=N)N)C(=O)N[C@@H](C)C(=O)N[C@@H](C)C(=O)N[C@@H](CCCCN)C(=O)N[C@@H](CCC(=O)O)C(=O)N[C@@H](Cc1ccccc1)C(=O)N[C@H](C(=O)N[C@@H](C)C(=O)N[C@@H](Cc1c[nH]c2ccccc12)C(=O)N[C@@H](CC(C)C)C(=O)N[C@@H](CCC(=O)O)C(=O)NCC(=O)NCC(=O)N1CCC[C@H]1C(=O)N[C@@H](CO)C(=O)N[C@@H](CO)C(=O)NCC(N)=O)[C@@H](C)CC)C(=O)O)C(=O)O` [Compound 21] (HELM PEPTIDE1{H.[Aib].Q.G.T.F.T.S.D.K.S.K.Y.L.E.E.R.A.A.K.E.F.I.A.W.L.E.G.G.P.S.S.G.[am]}|PEPTIDE2{[CCCCCCCCCCCCCCCC(=O)[*:2]].[gGlu].[gGlu]}$PEPTIDE1,PEPTIDE2,10:R3-3:R2$$$V2.0; N-terminus assumed), the concentration giving a half-maximal response (EC50) in data set [1] was found to be 0.175 nM. For the same compound, the solubility in data set [2] (setting [3]) and in data set [2] (setting [4]) was more than 2000 µg/mL in each case.
Regarding `CCCCCCCCCCCCCCCC(=O)N[C@@H](CCC(=O)N[C@@H](CCC(=O)NCCCC[C@H](NC(=O)[C@H](C)NC(=O)[C@H](CCCCN)NC(=O)[C@H](CCCNC(=N)N)NC(=O)[C@H](CCC(=O)O)NC(=O)[C@H](CC(=O)O)NC(=O)[C@H](CC(C)C)NC(=O)[C@H](Cc1ccc(O)cc1)NC(=O)[C@H](CCCCN)NC(=O)[C@H](CO)NC(=O)[C@H](Cc1ccc(O)cc1)NC(=O)[C@H](CC(=O)O)NC(=O)[C@H](CO)NC(=O)[C@@H](NC(=O)[C@H](Cc1ccccc1)NC(=O)[C@@H](NC(=O)CNC(=O)[C@H](CCC(N)=O)NC(=O)C(C)(C)NC(=O)[C@@H](N)Cc1c[nH]cn1)[C@@H](C)O)[C@@H](C)O)C(=O)N[C@@H](CCC(=O)O)C(=O)N[C@@H](Cc1ccccc1)C(=O)N[C@H](C(=O)N[C@@H](CCC(=O)O)C(=O)N[C@@H](Cc1c[nH]c2ccccc12)C(=O)N[C@@H](CC(C)C)C(=O)N[C@@H](CCC(=O)O)C(=O)NCC(=O)NCC(=O)N1CCC[C@H]1C(=O)N[C@@H](CO)C(=O)N[C@@H](CO)C(=O)NCC(N)=O)C(C)C)C(=O)O)C(=O)O` [Compound 69] (HELM PEPTIDE1{H.[Aib].Q.G.T.F.T.S.D.Y.S.K.Y.L.D.E.R.K.A.K.E.F.V.E.W.L.E.G.G.P.S.S.G.[am]}|PEPTIDE2{[CCCCCCCCCCCCCCCC(=O)[*:2]].[gGlu].[gGlu]}$PEPTIDE1,PEPTIDE2,20:R3-3:R2$$$V2.0; N-terminus assumed), in data set [1], the EC50 was found to be 0.261 nM. Also, the solubility in data set [2] (setting [3]) and in data set [2] (setting [4]) was more than 2000 µg/mL in each case.
With `CCCCCCCCCCCCCCCC(=O)N[C@@H](CCC(=O)N[C@@H](CCC(=O)NCCCC[C@H](NC(=O)[C@H](C)NC(=O)[C@H](CCCNC(=N)N)NC(=O)[C@H](CCCCN)NC(=O)[C@H](CCC(=O)O)NC(=O)[C@H](CCC(=O)O)NC(=O)[C@H](CC(C)C)NC(=O)[C@H](Cc1ccc(O)cc1)NC(=O)[C@H](CCCCN)NC(=O)[C@H](CO)NC(=O)[C@H](Cc1ccc(O)cc1)NC(=O)[C@H](CC(=O)O)NC(=O)[C@H](CO)NC(=O)[C@@H](NC(=O)[C@H](Cc1ccccc1)NC(=O)[C@@H](NC(=O)CNC(=O)[C@H](CCC(N)=O)NC(=O)C(C)(C)NC(=O)[C@@H](N)Cc1c[nH]cn1)[C@@H](C)O)[C@@H](C)O)C(=O)N[C@@H](CCC(=O)O)C(=O)N[C@@H](Cc1ccccc1)C(=O)N[C@H](C(=O)N[C@@H](CCC(=O)O)C(=O)N[C@@H](Cc1c[nH]c2ccccc12)C(=O)N[C@@H](CC(C)C)C(=O)N[C@@H](CC(C)C)C(=O)N[C@@H](CCC(=O)O)C(=O)N[C@@H](C)C(=O)NCC(=O)NCC(=O)N1CCC[C@H]1C(=O)N[C@@H](CO)C(=O)N[C@@H](CO)C(=O)NCC(N)=O)C(C)C)C(=O)O)C(=O)O` [Compound 26] (HELM PEPTIDE1{H.[Aib].Q.G.T.F.T.S.D.Y.S.K.Y.L.E.E.K.R.A.K.E.F.V.E.W.L.L.E.A.G.G.P.S.S.G.[am]}|PEPTIDE2{[CCCCCCCCCCCCCCCC(=O)[*:2]].[gGlu].[gGlu]}$PEPTIDE1,PEPTIDE2,20:R3-3:R2$$$V2.0; N-terminus assumed), in data set [1], the half-maximal effective concentration (EC50) was 0.197 nM. Besides, the “Solubility, pH 7.5, 20 mM phosphate buffer” value in data set [2] (pH 7.5) is “Insoluble”. Besides, the solubility turned out to be 80 µg/mL (≈ 18.1 µM) in data set [2] (setting [3]); 200 µg/mL (≈ 45.2 µM) in data set [2] (pH 8, Solubility, pH 8.0, 10 mM phosphate buffer); 100 µg/mL (≈ 22.6 µM) in data set [2] (pH 8, Solubility, pH 8.0, 20 mM phosphate buffer).
For `CCCCCCCCCCCCCCCC(=O)N[C@@H](CCC(=O)N[C@@H](CCC(=O)NCCCC[C@H](NC(=O)[C@H](C)NC(=O)[C@H](C)NC(=O)[C@H](CCCNC(=N)N)NC(=O)[C@H](CCC(=O)O)NC(=O)[C@H](CC(=O)O)NC(=O)[C@H](CC(C)C)NC(=O)[C@H](Cc1ccc(O)cc1)NC(=O)[C@H](CCCCN)NC(=O)[C@H](CO)NC(=O)[C@H](Cc1ccc(O)cc1)NC(=O)[C@H](CC(=O)O)NC(=O)[C@H](CO)NC(=O)[C@@H](NC(=O)[C@H](Cc1ccccc1)NC(=O)[C@@H](NC(=O)CNC(=O)[C@H](CCC(N)=O)NC(=O)C(C)(C)NC(=O)[C@@H](N)Cc1c[nH]cn1)[C@@H](C)O)[C@@H](C)O)C(=O)N[C@@H](CCC(=O)O)C(=O)N[C@@H](Cc1ccccc1)C(=O)N[C@H](C(=O)N[C@@H](C)C(=O)N[C@@H](Cc1c[nH]c2ccccc12)C(=O)N[C@@H](CC(C)C)C(=O)N[C@@H](CCC(=O)O)C(=O)N[C@@H](C)C(=O)NCC(=O)NCC(=O)N1CCC[C@H]1C(=O)N[C@@H](CO)C(=O)N[C@@H](CO)C(=O)NCC(N)=O)C(C)C)C(=O)O)C(=O)O` [Compound 15] (HELM PEPTIDE1{H.[Aib].Q.G.T.F.T.S.D.Y.S.K.Y.L.D.E.R.A.A.K.E.F.V.A.W.L.E.A.G.G.P.S.S.G.[am]}|PEPTIDE2{[CCCCCCCCCCCCCCCC(=O)[*:2]].[gGlu].[gGlu]}$PEPTIDE1,PEPTIDE2,20:R3-3:R2$$$V2.0; N-terminus assumed), the 50% effective concentration (EC50) in data set [1] was determined as 0.148 nM.
The same measure, in the same setting: in the case of `CCCCCCCCCCCCCCCC(=O)N[C@@H](CCC(=O)N[C@@H](CCC(=O)NCCCC[C@H](NC(=O)[C@H](CC(=O)O)NC(=O)[C@H](CO)NC(=O)[C@@H](NC(=O)[C@H](Cc1ccccc1)NC(=O)[C@@H](NC(=O)CNC(=O)[C@H](CCC(N)=O)NC(=O)C(C)(C)NC(=O)[C@@H](N)Cc1c[nH]cn1)[C@@H](C)O)[C@@H](C)O)C(=O)N[C@@H](CO)C(=O)N[C@@H](CCCCN)C(=O)N[C@@H](Cc1ccc(O)cc1)C(=O)N[C@@H](CC(C)C)C(=O)N[C@@H](CCC(=O)O)C(=O)N[C@@H](CO)C(=O)N[C@@H](CCC(=O)O)C(=O)N[C@@H](CCCNC(=N)N)C(=O)N[C@@H](C)C(=O)N[C@@H](CCCCN)C(=O)N[C@@H](CCC(=O)O)C(=O)N[C@@H](Cc1ccccc1)C(=O)N[C@H](C(=O)N[C@@H](CCC(=O)O)C(=O)N[C@@H](Cc1c[nH]c2ccccc12)C(=O)N[C@@H](CC(C)C)C(=O)N[C@H](C(=O)N[C@@H](CCCCN)C(=O)N[C@@H](CCC(=O)O)C(=O)NCC(=O)NCC(=O)N1CCC[C@H]1C(=O)N[C@@H](CO)C(=O)N[C@@H](CO)C(=O)NCC(N)=O)C(C)C)C(C)C)C(=O)O)C(=O)O` [Compound 19] (HELM PEPTIDE1{H.[Aib].Q.G.T.F.T.S.D.K.S.K.Y.L.E.S.E.R.A.K.E.F.V.E.W.L.V.K.E.G.G.P.S.S.G.[am]}|PEPTIDE2{[CCCCCCCCCCCCCCCC(=O)[*:2]].[gGlu].[gGlu]}$PEPTIDE1,PEPTIDE2,10:R3-3:R2$$$V2.0; N-terminus assumed) it was 6.25 nM; in that of `CCCCCCCCCCCCCCCC(=O)N[C@@H](CCC(=O)N[C@@H](CCC(=O)NCCCC[C@H](NC(=O)[C@H](C)NC(=O)[C@H](CCCNC(=N)N)NC(=O)[C@H](CCCCN)NC(=O)[C@H](CCC(=O)O)NC(=O)[C@H](CCC(=O)O)NC(=O)[C@H](CC(C)C)NC(=O)[C@H](Cc1ccc(O)cc1)NC(=O)[C@H](CCCCN)NC(=O)[C@H](CO)NC(=O)[C@H](Cc1ccc(O)cc1)NC(=O)[C@H](CC(=O)O)NC(=O)[C@H](CO)NC(=O)[C@@H](NC(=O)[C@H](Cc1ccccc1)NC(=O)[C@@H](NC(=O)CNC(=O)[C@H](CCC(N)=O)NC(=O)C(C)(C)NC(=O)[C@@H](N)Cc1c[nH]cn1)[C@@H](C)O)[C@@H](C)O)C(=O)N[C@@H](CCC(=O)O)C(=O)N[C@@H](Cc1ccccc1)C(=O)N[C@H](C(=O)N[C@@H](CCC(=O)O)C(=O)N[C@@H](Cc1c[nH]c2ccccc12)C(=O)N[C@@H](CC(C)C)C(=O)N[C@@H](CCC(=O)O)C(=O)NCC(=O)NCC(=O)N1CCC[C@H]1C(=O)N[C@@H](CO)C(=O)N[C@@H](CO)C(=O)NCC(N)=O)C(C)C)C(=O)O)C(=O)O` [Compound 76] (HELM PEPTIDE1{H.[Aib].Q.G.T.F.T.S.D.Y.S.K.Y.L.E.E.K.R.A.K.E.F.V.E.W.L.E.G.G.P.S.S.G.[am]}|PEPTIDE2{[CCCCCCCCCCCCCCCC(=O)[*:2]].[gGlu].[gGlu]}$PEPTIDE1,PEPTIDE2,20:R3-3:R2$$$V2.0; N-terminus assumed), 0.191 nM.

The values above are taken from US12257287B2, “Glucagon-derived peptide and use thereof” (Tianjin Institute of Pharmaceutical Research Co., Ltd., priority 2018, dated 2025).
